The record followed here is BindingDB's records for doi:10.7270/Q2W094D4 (Burnham Center For Chemical Genomics, 2011).

The term IC50 denotes the concentration that gives 50% inhibition. A low value points to greater potency in that assay.

The assay deals with Hexokinase HKDC1 [W721R] (Homo sapiens, UniProt Q2TB90, W721R). The experiment in a line: inhibition of HKDC1 glucose phosphorylation – biochemical, W721R variant, dose response (AID 504729).
Hexokinase HKDC1 [W721R], sequence (Q2TB90 whole entry W721R): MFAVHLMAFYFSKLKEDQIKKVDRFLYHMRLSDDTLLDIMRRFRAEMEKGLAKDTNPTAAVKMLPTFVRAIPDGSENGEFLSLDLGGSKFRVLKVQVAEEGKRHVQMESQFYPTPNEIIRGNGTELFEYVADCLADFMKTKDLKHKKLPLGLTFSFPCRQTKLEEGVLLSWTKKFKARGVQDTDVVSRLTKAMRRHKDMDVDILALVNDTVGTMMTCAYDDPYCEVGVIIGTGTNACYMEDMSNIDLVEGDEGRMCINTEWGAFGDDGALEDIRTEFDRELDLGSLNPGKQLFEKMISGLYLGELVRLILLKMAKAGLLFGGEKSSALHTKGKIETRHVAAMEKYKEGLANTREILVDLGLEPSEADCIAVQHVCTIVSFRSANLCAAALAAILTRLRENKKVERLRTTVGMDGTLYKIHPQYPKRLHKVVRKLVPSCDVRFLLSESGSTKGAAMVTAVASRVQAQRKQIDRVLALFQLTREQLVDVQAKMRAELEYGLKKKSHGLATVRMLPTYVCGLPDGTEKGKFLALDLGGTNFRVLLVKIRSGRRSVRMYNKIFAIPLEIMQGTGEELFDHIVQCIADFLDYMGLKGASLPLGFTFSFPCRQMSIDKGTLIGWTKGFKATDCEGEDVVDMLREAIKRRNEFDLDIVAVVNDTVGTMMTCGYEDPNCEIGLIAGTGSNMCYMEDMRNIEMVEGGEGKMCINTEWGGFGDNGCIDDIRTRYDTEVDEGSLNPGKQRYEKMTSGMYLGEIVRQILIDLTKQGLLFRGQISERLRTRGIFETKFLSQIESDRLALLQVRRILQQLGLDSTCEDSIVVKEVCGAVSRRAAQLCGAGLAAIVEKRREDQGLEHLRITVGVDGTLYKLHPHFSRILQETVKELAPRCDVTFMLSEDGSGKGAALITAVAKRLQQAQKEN
`Oc1ccc(CN=Nc2ncc(Br)cn2)c(O)c1` yielded an IC50 of 1.68 µM.
In turn, `COc1ccc(Cn2c(O)c3[nH]cccc-3c2=O)cc1` registered an IC50 of 21.5 µM.
To `CC(Nc1cc(O)c2cccnc2c1O)C(=O)c1ccccc1` (stereo not drawn) belongs 18.5 µM; to `N#CC(C(=O)CCl)c1nc2c(s1)CCc1ccccc1-2` (stereo not drawn) [MLS001171530], 17.4 µM; to `C=c1c(NC(C)=O)c(O)c2nc3n(c2c1O)CCC=3OC(=O)COC` [SMR001565176], 2.18 µM.
Consider `O=C1C=CC(CN=Nc2ccc([N+](=O)[O-])cn2)C(O)=C1` (stereo not drawn) [SMR001527138], for which 6.23 µM corresponded to half-maximal inhibition (IC50).
As for `Cc1ccc(Nc2c3[nH]cccc-3c(=O)n2-c2ccccc2C)cc1C` [SMR000028201], the figure is 11.6 µM; as for `Cc1[nH]c2c(=O)c3c(c(=O)c=2[nH]c1C)C1C=CC3CC1` [MLS002701599], 2.23 µM.
The molecule `O=C(/C=C/c1ccco1)NCC(=O)NNC1=c2ccccc2=NC1=O` [MLS001075666] registered an IC50 of 25.3 µM.
To `Cc1ccc(/N=C/C2=CC(Cc3ccccc3Cl)C=C([N+](=O)[O-])C2=O)c(O)c1` (stereo not drawn) belongs 28.5 µM; to `Cc1cccc2c1=NC(=O)C=2NNC(=O)c1ccc(NS(=O)(=O)c2cccs2)cc1` [SMR001246714], 15.5 µM; to `Oc1c(Cl)c(N=CCc2ccccc2)c(O)c2ccccc12` [MLS002608293], 7.92 µM.
As for `COC1=CC(/C=C(\C#N)c2nc3ccc(C)cc3[nH]2)C=C([N+](=O)[O-])C1=O` (stereo not drawn) [(2Z,3E)-3-(3-methoxy-5-nitro-4-oxocyclohexa-2,5-dien-1-ylidene)-2-(5-methyl-1,3-dihydrobenzimidazol-2-ylidene)propanenitrile], inhibition was half-maximal at 16.1 µM (IC50).
